Consider three compounds from ChEMBL document CHEMBL3102707, “Synthesis and structure-activity relationship of 2-adamantylmethyl tetrazoles as potent and selective inhibitors of human 11β-hydroxysteroid dehydrogenase type 1 (11β-HSD1)” (Bioorg Med Chem Lett, 2014).

Each structure is given as a SMILES string.

Data set [1] is described as follows: Aqueous solubility of the compound. Type of data set: physicochemical. The conditions noted are these: buffer.
Data set [2] in a line: Drug level in mouse adipose tissue at 10 mg/kg, po after 3 hrs. Type of data set: ADME, organism-based. Also noted: dose 10 mg/kg, route oral. The conditions noted are these: read-out: Drug uptake.
Data set [3] is described as follows: Drug level in mouse liver at 10 mg/kg, po after 3 hrs. Type of data set: ADME, organism-based. Also noted: dose 10 mg/kg, route oral. As to conditions: read-out: Drug uptake.
A short description of data set [4]: Plasma concentration in mouse at 10 mg/kg, po after 3 hrs. Details: dose 10 mg/kg, route oral. The format is ADME, organism-based.

`c1ccc(-c2ccc(C3(Cc4nnn[nH]4)C4CC5CC(C4)CC3C5)cc2)cc1` (configuration not stated): the solubility entry in data set [1] is listed as “soluble”.

As to `N#Cc1ccc(-c2ccc(C3(Cc4nnn[nH]4)C4CC5CC3CC(C4)C5O)cc2)cc1` (racemic), the figures for the concentration at 3 h in data set [2], in data set [3] and in data set [4] were less than 75 nM, 23700 nM and 820 nM, respectively.

With `OC1C2CC3CC1CC(C2)C3(Cc1nnn[nH]1)c1ccc(-c2ccc(F)cc2)cc1` (single isomer, unassigned; enantiomer 1), the concentration at 3 h in data set [2] stood at 160 nM; in data set [3], 13900 nM; in data set [4], 1560 nM.
